Laboratory results published in the NIST ThermoML archive (doi:10.1016/j.jct.2018.04.010).
± gives the expanded uncertainty stated by the source.

Experiments:
[1] = 101 kPa, Liquid, Vibrating tube method
[2] = xn = mol fraction of the nth substance listed; details: 101 kPa, Liquid, Vibrating tube method, x2 = 0.333

mass density ([1]; 293.15 K) | mass density ([1]; 303.15 K) | mass density ([1]; 313.15 K) | mass density ([1]; 323.15 K) | mass density ([2]; 293.15 K) | mass density ([2]; 303.15 K) | mass density ([2]; 313.15 K) | mass density ([2]; 323.15 K) | SMILES
792.6 ± 2 kg/m3 | 783 ± 2 kg/m3 | 773.5 ± 2 kg/m3 | 764 ± 2 kg/m3 |  |  |  |  | CO [methanol]
 |  |  |  | 1199.7 ± 2 kg/m3 | 1194.2 ± 2 kg/m3 | 1188.6 ± 2 kg/m3 | 1183.2 ± 2 kg/m3 | NC(N)=O [urea] + C[N+](C)(C)CCO.[Cl-]
